# Data from patent US20170159101A1, “DRUG-RESISTANT P97 ATPASE MUTATIONS” (Cleave Biosciences, Inc., priority 2014, published 2017).
# Values joined by “and” are separate entries in the source; they are usually repeats but may differ in a detail not shown here. Equal entries are not always repeated.
# Tests used:
# Format in all cases: cell-based, human
# [1] = test system: LoVo resistant cell line clone #221 (p97 V474V/A); experiment: GI50 fold-change, resistant clone #221 vs parental; details: Clone #221, LoVo, resistance generated with compound 4, T1421C/T / V474V/A; 72 hrs
# Experimental: (§1) Dose titration of test compounds were conducted in Hct116, DLD-1, or LoVo cell lines. In brief, cells were plated in 384-well plates and a selected candidate drug compound was added in a 10-point 2-fold serial dilution. […] Hct116 cells were plated at 50,000 cells per 15 cm dish and treated with GI50-GI90 doses of test compound for 2-4 weeks until individual colonies of cells were visible on the plate.
# [2] = test system: DLD-1 resistant cell line clone #64 (p97 N660N/S); experiment: GI50 fold-change, resistant clone #64 vs parental; details: Clone #64, DLD-1, resistance generated with compound 4, A1979G/A / N660N/S; 72 hrs
# Experimental: (§2) Dose titration of test compounds were conducted in Hct116, DLD-1, or LoVo cell lines. In brief, cells were plated in 384-well plates and a selected candidate drug compound was added in a 10-point 2-fold serial dilution.
# [3] = test system: DLD-1 resistant cell line clone #61 (p97 I620I/L); experiment: GI50 fold-change, resistant clone #61 vs parental; details: Clone #61, DLD-1, resistance generated with compound 4, T1859T/C / I620I/L; 72 hrs
# Experimental: as §2
# [4] = test system: Hct116 resistant cell line clone #1 (p97 D649N); experiment: GI50 fold-change, resistant clone #1 vs parental; details: Clone #1, Hct116, resistance generated with compound 2, G1945A / D649N; 72 hrs
# Experimental: as §2
# [5] = test system: DLD-1 resistant cell line clone #83 (p97 N660N/D); experiment: GI50 fold-change, resistant clone #83 vs parental; details: Clone #83, DLD-1, resistance generated with compound 4, A1978G/A / N660N/D; 72 hrs
# Experimental: as §2
# [6] = test system: Hct116 resistant cell line clone #108 (p97 P646T); experiment: GI50 fold-change, resistant clone #108 vs parental; details: Clone #108, Hct116, resistance generated with compound 4, C1936A / P646T; 72 hrs
# Experimental: as §1
# [7] = test system: Hct116 resistant cell line clone #152 (p97 T688I); experiment: GI50 fold-change, resistant clone #152 vs parental; details: Clone #152, Hct116, resistance generated with compound 4, C2063T / T688I, 72 hrs
# Experimental: as §1
# [8] = test system: DLD-1 resistant cell line clone #58 (p97 D649D/N); experiment: GI50 fold-change, resistant clone #58 vs parental; details: Clone #58, DLD-1, resistance generated with compound 4, G1945G/A / D649D/N; 72 hrs
# Experimental: as §2
# [9] = test system: DLD-1 resistant cell line clone #87 (p97 S541P); experiment: GI50 fold-change, resistant clone #87 vs parental; details: Clone #87, DLD-1, resistance generated with compound 4, T1621T/C / S541P; 72 hrs
# Experimental: as §2
# [10] = test system: Hct116 resistant cell line clone #42 (p97 P472A); experiment: GI50 fold-change, resistant clone #42 vs parental; details: Clone #42, Hct116, resistance generated with compound 4, C1414G / P472A; 72 hrs
# Experimental: as §2
# [11] = test system: Hct116 resistant cell line clone #25 (p97 P500T); experiment: GI50 fold-change, resistant clone #25 vs parental; details: Clone #25, Hct116, resistance generated with compound 4, C1498A / P500T; 72 hrs
# Experimental: as §2
# [12] = test system: Hct116 resistant cell line clone #45 (p97 F539I); experiment: GI50 fold-change, resistant clone #45 vs parental; details: Clone #45, Hct116, resistance generated with compound 4, T1615A / F539I; 72 hrs
# Experimental: as §2
# [13] = test system: Hct116 resistant cell line clone #139 (p97 P472S); experiment: GI50 fold-change, resistant clone #139 vs parental; details: Clone #139, Hct116, resistance generated with compound 4, C1414T / P472S; 72 hrs
# Experimental: as §2
# [14] = test system: Hct116 resistant cell line clone #30 (p97 F516L); experiment: GI50 fold-change, resistant clone #30 vs parental; details: Clone #30, Hct116, resistance generated with compound 4, T1546C / F516L; 72 hrs
# Experimental: as §2
# [15] = test system: Hct116 resistant cell line clone #6 (p97 A528T); experiment: GI50 fold-change, resistant clone #6 vs parental; details: Clone #6, Hct116, resistance generated with compound 2, G1582 / A528T; 72 hrs
# Experimental: as §2
# [16] = test system: Hct116 resistant cell line clone #117 (p97 L482I); experiment: GI50 fold-change, resistant clone #117 vs parental; details: Clone #117, Hct116, resistance generated with compound 4, C1444A / L482I; 72 hrs
# Experimental: as §2
# [17] = test system: DLD-1 resistant cell line clone #82 (p97 A569A/T); experiment: GI50 fold-change, resistant clone #82 vs parental; details: Clone #82, DLD-1, resistance generated with compound 4, G1705G/A / A569A/T; 72 hrs
# Experimental: as §2
# [18] = test system: Hct116 resistant cell line clone #47 (p97 E498D); experiment: GI50 fold-change, resistant clone #47 vs parental; details: Clone #47, Hct116, resistance generated with compound 4, G1494T / E498D; 72 hrs
# Experimental: as §2
# [19] = test system: Hct116 resistant cell line clone #27 (p97 T688A); experiment: GI50 fold-change, resistant clone #27 vs parental; details: Clone #27, Hct116, resistance generated with compound 4, A2062G / T688A; 72 hrs
# Experimental: as §2
# [20] = test system: Hct116 resistant cell line clone #180 (p97 A569T); experiment: GI50 fold-change, resistant clone #180 vs parental; details: Clone #180, Hct116, resistance generated with compound 4, G1705A / A569T; 72 hrs
# Experimental: as §2
# [21] = test system: Hct116 resistant cell line clone #22 (p97 N660D); experiment: GI50 fold-change, resistant clone #22 vs parental; details: Clone #22, Hct116, resistance generated with compound 4, A1978G / N660D; 72 hrs
# Experimental: as §2
# [22] = test system: Hct116 resistant cell line clone #207 (p97 V485D); experiment: GI50 fold-change, resistant clone #207 vs parental; details: Clone #207, Hct116, resistance generated with compound 4, T1454A / V485D; 72 hrs
# Experimental: as §2
# [23] = test system: Hct116 resistant cell line clone #34 (p97 E470D/E); experiment: GI50 fold-change, resistant clone #34 vs parental; details: Clone #34, Hct116, resistance generated with compound 4, G1410T/G / E470D/E; 72 hrs
# Experimental: as §2
# [24] = test system: Hct116 resistant cell line clone #90 (p97 Q473P); experiment: GI50 fold-change, resistant clone #90 vs parental; details: Clone #90, Hct116, resistance generated with compound 4, A1418C / Q473P; 72 hrs
# Experimental: as §2
# [25] = test system: Hct116 resistant cell line clone #31 (p97 C535Y); experiment: GI50 fold-change, resistant clone #31 vs parental; details: Clone #31, Hct116, resistance generated with compound 4, G1604A / C535Y; 72 hrs
# Experimental: as §2
# [26] = test system: Hct116 resistant cell line clone #137 (p97 T475I); experiment: GI50 fold-change, resistant clone #137 vs parental; details: Clone #137, Hct116, resistance generated with compound 4, C1424T / T475I; 72 hrs
# Experimental: as §2
# [27] = test system: Hct116 resistant cell line clone #29 (p97 N660K); experiment: GI50 fold-change, resistant clone #29 vs parental; details: Clone #29, Hct116, resistance generated with compound 4, C1980A / N660K; 72 hrs
# Experimental: as §2
# [28] = test system: Hct116 resistant cell line clone #33 (p97 P472L); experiment: GI50 fold-change, resistant clone #33 vs parental; details: Clone #33, Hct116, resistance generated with compound 4, C1415T / P472L; 72 hrs
# Experimental: as §2
SMILES,Fold Change in GI50 Compared to Parental Cell Line [1],Fold Change in GI50 Compared to Parental Cell Line [2],Fold Change in GI50 Compared to Parental Cell Line [3],Fold Change in GI50 Compared to Parental Cell Line [5],Fold Change in GI50 Compared to Parental Cell Line [6],Fold Change in GI50 Compared to Parental Cell Line [7],Fold Change in GI50 Compared to Parental Cell Line [8],Fold Change in GI50 Compared to Parental Cell Line [9],Fold Change in GI50 Compared to Parental Cell Line [10],Fold Change in GI50 Compared to Parental Cell Line [11],Fold Change in GI50 Compared to Parental Cell Line [12],Fold Change in GI50 Compared to Parental Cell Line [13],Fold Change in GI50 Compared to Parental Cell Line [14],Fold Change in GI50 Compared to Parental Cell Line [16],Fold Change in GI50 Compared to Parental Cell Line [17],further results
"COc1nc2ccccc2n1-c1nc2c(c(NCc3ccccc3)n1)CCCC2 [Compound 2, N-benzyl-2-(2-methoxy-1H-1,3-benzodiazol-1-yl)-5,6,7,8-tetrahydroquinazolin-4-amine]",2.2 fold,0.6 fold,1.1 fold,2.6 fold,1.3 fold,2.1 fold,1.4 fold,1.3 fold,,,,,,,,Fold Change in GI50 Compared to Parental Cell Line [4]: 4.5 fold
"Cc1cc2c(C(N)=O)cccc2n1-c1nc2c(c(NCc3ccccc3)n1)CNCC2 [Compound 3, 1-[4-(benzylamino)-5H,6H,7H,8H-pyrido[4,3-d]pyrimidin-2-yl]-2-methyl-1H-indole-4-carboxamide]",4.1 fold,1.2 fold,1.0 fold,2.4 fold,1.6 fold,40.2 fold,2.0 fold,34.6 fold,7.0 fold,2.2 fold,6.9 fold,4.2 fold,10.0 fold,4.4 fold,4.9 fold,Fold Change in GI50 Compared to Parental Cell Line [15]: 13.4 fold
"Cc1cc2c(CN)cccc2n1-c1nc2c(c(NCc3ccccc3)n1)CCCC2 [Compound 6, 2-[4-(aminomethyl)-2-methyl-1H-indol-1-yl]-N-benzyl-5,6,7,8-tetrahydroquinazolin-4-amine]",2.2 fold,2.7 fold,3.3 fold,1.3 fold,1.6 fold,1.4 fold,2.0 fold,0.9 fold,3.5 fold,1.9 fold,3.4 fold,3.5 fold,4.1 fold,2.3 fold,4.5 fold,Fold Change in GI50 Compared to Parental Cell Line [18]: 1.8 fold; Fold Change in GI50 Compared to Parental Cell Line [19]: 2.3 fold; Fold Change in GI50 Compared to Parental Cell Line [20]: 3.4 fold; Fold Change in GI50 Compared to Parental Cell Line [21]: 1.8 fold; Fold Change in GI50 Compared to Parental Cell Line [22]: 2.7 fold; Fold Change in GI50 Compared to Parental Cell Line [23]: 2.7 fold; Fold Change in GI50 Compared to Parental Cell Line [24]: 2.1 fold; Fold Change in GI50 Compared to Parental Cell Line [25]: 3.3 fold; Fold Change in GI50 Compared to Parental Cell Line [26]: 2.8 fold; Fold Change in GI50 Compared to Parental Cell Line ([7]; listed as compound 6): 1.4 fold and 1.42 fold; Fold Change in GI50 Compared to Parental Cell Line [27]: 3.8 fold; Fold Change in GI50 Compared to Parental Cell Line [28]: 5.3 fold
